Values quoted from earlier work in publication PMC12652113, “Fluorescent Albumin-Binding N-Propylbenzene Indolenine-Based Squaraines as Potential Candidates for Prostate Cancer Photodynamic Therapy Photosensitizers” (International Journal of Molecular Sciences, 2025).

Conditions: in dimethylformamide; reference value used for the calculation; cited from earlier work

Compound: [Zn+2].c1ccc2c(c1)-c1nc-2nc2[n-]c(nc3nc([n-]c4nc(n1)-c1ccccc1-4)-c1ccccc1-3)c1ccccc21 [Zinc phthalocyanine, zinc phthalocyanine]
- fluorescence quantum yield (ΦF) of the reference standard: 0.17
